Article PMC7156458, “Synthetic biology based construction of biological activity-related library of fungal decalin-containing diterpenoid pyrones” (Nature Communications, 2020)
Values joined by “and” are separate entries in the source; they are usually repeats but may differ in a detail not shown here. Equal values may be shown once. Read-outs that look alike come from different tables or passages of the source.

How the values were obtained:
[1] = test system: MCF-7 cells; experiment: cell cytotoxic effects against MCF-7 cells (72 h), A490; assay type: cell-based, human
[2] = cytotoxicity in Drosophila DL1 cells; assay type: cell-based; conditions: Drosophila, DL1 cells (embryonic macrophage-derived), DL1 cells
Experimental: (§1) We screened the DDPs on the Drosophila assay system for cytotoxicity, inhibitory activity of innate immune signalling and insecticidal activity. The cytotoxicity of the DDPs was evaluated using two cell lines, embryonic macrophage-derived DL1 cells[58]–[60] and larval blood cell-derived l(2)mbn cells, and their IC50 values are listed in Supplementary Table 23.

[3] = test system: DL1 cells; experiment: cytotoxicity in Drosophila DL1 cells; assay type: cell-based; conditions: for IC50: Drosophila melanogaster
Experimental: as §1

[4] = cytotoxicity in Drosophila l(2)mbn cells; assay type: cell-based; conditions: Drosophila, l(2)mbn cells (larval blood cell-derived)
Experimental: as §1

[5] = test system: l(2)mbn cells; experiment: cytotoxicity in Drosophila l(2)mbn cells; assay type: cell-based; conditions: for Luminescence Raw1: replicate 1; for Luminescence Raw2: replicate 2; for IC50: Drosophila melanogaster, cytotoxicity
Experimental: as §1

[6] = test system: human immunodeficiency virus-1 (HIV-1); experiment: anti-HIV MAGI assay; assay type: cell-based; conditions: anti-HIV
Description: We examined the inhibitory activities of DDPs against various species of bacteria (both gram-negative and gram-positive bacteria), fungi and viruses. […] In contrast, preliminary screening of the DDPs for anti-viral agents with hepatitis B virus (HBV), measles virus (MV), Epstein-Barr virus (EBV), herpes simplex virus (HSV) and human immunodeficiency virus-1 (HIV-1) indicated their selective inhibition of HIV.

[7] = test system: MAGI cells; experiment: cytotoxicity in the anti-HIV assay (CC50); assay type: cell-based; conditions: single determinations
[8] = replicate 1, relative to DMSO 1%, read-out: % viability, viability 1
[9] = replicate 2, relative to DMSO 1%, read-out: % viability, viability 2

C=C1CC[C@H]2[C@]3(C)C[C@@H](C=C(C)C)O[C@H]3CC[C@]2(C)[C@@H]1Cc1c(O)c(C)c(C)oc1=O [Compound 5, subglutinol A]
cytotoxicity against the bulk of MCF-7 cells [1]: dose-dependent cytotoxicity | viability at 0.1 µM ([1]; Homo sapiens, MCF7, 72 h, MCF-7, 72 h, 0.1 µM (DMSO 0.002%), read-out: A490 (control =1) ave): 45.9% | viability at 1 µM ([1]; Homo sapiens, MCF7, 72 h, MCF-7, 72 h, 1 µM (DMSO 0.02%), read-out: A490 (control =1) ave): 45.5% | viability at 10 µM ([1]; Homo sapiens, MCF7, 72 h, MCF-7, 72 h, 10 µM (DMSO 0.2%), read-out: A490 (control =1) ave): 8.4% | A490 ave ([1]; MCF-7, 72 h, 0.1 µM (DMSO 0.002%), control 1.064): 0.489 | A490 ave ([1]; MCF-7, 72 h, 1 µM (DMSO 0.02%), control 1.104): 0.503 | A490 ave ([1]; MCF-7, 72 h, 10 µM (DMSO 0.2%), control 1.049): 0.088 | viability at 0.04 µM [2, 8]: 6.35% | viability at 0.04 µM [2, 9]: 8.13% | viability at 0.2 µM [2, 8]: 3.78% | viability at 0.2 µM [2, 9]: 4.95% | viability at 1 µM [2, 8]: 3.62% | viability at 1 µM [2, 9]: 3.84% | viability at 4 µM [2, 8]: 3.94% | viability at 4 µM [2, 9]: 4.03% | viability at 10 µM [2, 8]: 3.69% | viability at 10 µM [2, 9]: 4.2% | viability at 20 µM [2, 8]: 3.33% | viability at 20 µM [2, 9]: 3.4% | Luminescence Raw1 ([3]; DL1 cells, 0.04 µM, replicate 1): 261750 | Luminescence Raw2 ([3]; DL1 cells, 0.04 µM, replicate 2): 334946 | Luminescence Raw1 ([3]; DL1 cells, 0.2 µM, replicate 1): 155744 | Luminescence Raw2 ([3]; DL1 cells, 0.2 µM, replicate 2): 204060 | Luminescence Raw1 ([3]; DL1 cells, 1 µM, replicate 1): 149254 | Luminescence Raw2 ([3]; DL1 cells, 1 µM, replicate 2): 158268 | Luminescence Raw1 ([3]; DL1 cells, 4 µM, replicate 1): 162234 | Luminescence Raw2 ([3]; DL1 cells, 4 µM, replicate 2): 166201 | Luminescence Raw1 ([3]; DL1 cells, 10 µM, replicate 1): 152139 | Luminescence Raw2 ([3]; DL1 cells, 10 µM, replicate 2): 173051 | Luminescence Raw1 ([3]; DL1 cells, 20 µM, replicate 1): 137356 | Luminescence Raw2 ([3]; DL1 cells, 20 µM, replicate 2): 139880 | IC50 ([3]; DL1 cells, cytotoxicity, average of two replicates, read-out: IC50 Average): < 40 nM | IC50 ([3]; DL1 cells, cytotoxicity, replicate 1, read-out: IC50 (1)): < 40 nM | IC50 ([3]; DL1 cells, cytotoxicity, replicate 2, read-out: IC50 (2)): < 40 nM | IC50 ([3]; DL-1 cell line, cell growth, read-out: IC50): < 40 nM | viability at 0.04 µM [4, 8]: 139% | viability at 0.04 µM [4, 9]: 137% | viability at 0.2 µM [4, 8]: 19.9% | viability at 0.2 µM [4, 9]: 17% | viability at 1 µM [4, 8]: 8.99% | viability at 1 µM [4, 9]: 8.5% | viability at 4 µM [4, 8]: 8.31% | viability at 4 µM [4, 9]: 7.53% | viability at 10 µM [4, 8]: 8.2% | viability at 10 µM [4, 9]: 8.05% | viability at 20 µM [4, 8]: 7.67% | viability at 20 µM [4, 9]: 7.74% | Luminescence Raw1 ([5]; 0.04 µM): 3571044 | Luminescence Raw2 ([5]; 0.04 µM): 3503586 | Luminescence Raw1 ([5]; 0.2 µM): 510842 | Luminescence Raw2 ([5]; 0.2 µM): 436923 | Luminescence Raw1 ([5]; 1 µM): 230676 | Luminescence Raw2 ([5]; 1 µM): 218056 | Luminescence Raw1 ([5]; 4 µM): 213369 | Luminescence Raw2 ([5]; 4 µM): 193177 | Luminescence Raw1 ([5]; 10 µM): 210485 | Luminescence Raw2 ([5]; 10 µM): 206518 | Luminescence Raw1 ([5]; 20 µM): 196783 | Luminescence Raw2 ([5]; 20 µM): 198586 | IC50 ([5]; average of two replicates, read-out: IC50 Average): 190 nM | IC50 ([5]; average±SEM, read-out: IC50): 190 ± 10 nM | IC50 ([5]; replicate 1, read-out: IC50 (1)): 194 nM | IC50 ([5]; replicate 2, read-out: IC50 (2)): 180 nM | EC50 ([6]; Human immunodeficiency virus 1, MAGI, MAGI assay, read-out: EC50): < 200 nM | EC50 ([6]; Human immunodeficiency virus 1, MAGI, average of numeric determinations, read-out: Avg. EC50): 38.9 nM | EC50 ([6]; Human immunodeficiency virus 1, MAGI, single determinations, read-out: Efficacy (EC50)): 36.3 nM | EC50 ([6]; single determinations, read-out: Efficacy (EC50)): 29.8 nM and 37.9 nM and 51.4 nM | Cytotoxicity [7]: >10 µM
